Source: patent publication US11957703B2, “Modulating Nudix homology domain (NHD) with nicotinamide mononucleotide analogs and derivatives of same” (President and Fellows of Harvard College, priority 2017, dated 2024)
One block for each compound: values may come before it.

Experiments:
[1] = biological target: T1, PARP1-DBC1 complex (Homo sapiens, UniProt Q8N163); assay: PARP1-DBC1 dissociation assay (Flag-DBC1 immunoprecipitates incubated with molecules); assay type: binding
T1 construct: expressed in transfected cells; host or cells: 293T cells stably expressing Flag-DBC1 (retroviral pMSCVpuro-Flag-DBC1)
T1 sequence (Q8N163 whole entry, one chain of several): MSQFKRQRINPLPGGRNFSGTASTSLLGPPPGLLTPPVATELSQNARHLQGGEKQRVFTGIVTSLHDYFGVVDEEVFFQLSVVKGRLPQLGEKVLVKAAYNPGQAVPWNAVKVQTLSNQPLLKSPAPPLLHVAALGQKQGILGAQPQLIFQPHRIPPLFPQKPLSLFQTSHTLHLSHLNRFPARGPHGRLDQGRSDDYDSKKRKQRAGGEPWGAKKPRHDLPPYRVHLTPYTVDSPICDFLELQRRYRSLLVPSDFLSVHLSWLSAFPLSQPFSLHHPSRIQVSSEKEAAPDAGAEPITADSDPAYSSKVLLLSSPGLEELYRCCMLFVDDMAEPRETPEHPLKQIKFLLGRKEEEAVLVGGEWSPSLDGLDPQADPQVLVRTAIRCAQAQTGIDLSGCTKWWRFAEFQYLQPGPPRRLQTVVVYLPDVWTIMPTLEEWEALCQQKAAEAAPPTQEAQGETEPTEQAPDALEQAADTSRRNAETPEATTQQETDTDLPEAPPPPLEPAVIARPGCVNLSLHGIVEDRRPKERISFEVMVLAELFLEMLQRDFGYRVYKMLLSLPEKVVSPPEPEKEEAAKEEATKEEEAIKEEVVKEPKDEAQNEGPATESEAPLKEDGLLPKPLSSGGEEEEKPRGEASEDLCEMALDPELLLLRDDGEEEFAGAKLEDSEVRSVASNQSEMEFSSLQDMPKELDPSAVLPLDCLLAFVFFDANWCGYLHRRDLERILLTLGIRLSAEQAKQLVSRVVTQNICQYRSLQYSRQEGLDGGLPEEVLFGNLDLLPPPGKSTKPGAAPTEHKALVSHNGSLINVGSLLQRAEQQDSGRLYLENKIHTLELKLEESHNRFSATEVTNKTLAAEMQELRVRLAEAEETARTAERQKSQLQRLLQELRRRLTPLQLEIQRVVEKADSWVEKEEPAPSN
Method: (§1) Protein extracts from 293T or mouse liver tissues were lysed in ice-cold buffer (150 mM NaCl, 1 mM EDTA, 1 mM EGTA, 1% Triton X-100, 0.5% NP-40, 10 mM Tris HCl, pH 7.4) supplemented with protease inhibitors cocktail cOmplete tablets (Roche) and phosphatase inhibitor cocktail 2 and 3 (Sigma). Protein concentrations were determined by the Bradford protein assay (Bio-rad). Flag-M2 agarose beads or anti-V5 agarose affinity gel (Sigma) were mixed with the lysate supernatant. Immunoprecipitation was allowed to proceed for 2 hours up to overnight at 4° C. with gentle rotation. After 4 washes with lysis buffer, proteins were either directly boiled in SDS-PAGE sample buffer or eluted from the agarose beads using 3×FLAG peptides (Sigma).
(§2) Cell lysates or Co-IP samples were run on homemade 10% or 4-20% gradient pre-cast SDS-PAGE gels (Bio-Rad) under reducing conditions, and then transferred to a polyvinylidene difluoride (PVDF) membrane (Millipore). Membranes were blocked with 5% non-fat dry milk in TBS-Tween (10 mM Tris HCl, pH 7.5, 150 mM NaCl, and 0.1% Tween-20). Antibodies were used at the following concentrations: anti-SIRT1 (Santa Cruz, SC-15404) at 1:500, anti-DBC1 (Bethyl Labotatories, A300-434A) at 1:1000, anti-PARP1 (Cell Signaling, #9542L) at 1:1000, anti-γH2AX (Abcam, ab2893) at 1:1000, anti-H2AX (Abcam, ab11175) at 1:1000, anti-NMNAT1 (Abcam, ab45548) at 1:1000, anti-GAPDH (Millipore, MAB374) at 1:3000, anti-V5 (Invitrogen, R960-25) at 1:3000, anti-beta-tubulin (Upstate, 05-661) at 1:1000, anti-α-actin (Millipore, MAB1501R) at 1:2000, anti-Flag (Sigma, F7425) at 1:3000, anti-PARG (Abcam, ab16060) at 1:1000, p53 (Calbiochem, OP43) at 1:1000, RAD51 (Calbiochem, PC130) at 1:1000, p21 (Neomarker-Labvision-Thermal Fisher, RB-032-P1) at 1:1000, SIRT6 (Cell signaling, D8D12) at 1:1000, Streptavidin-HRP at 1:1000 (Trevigen #4800-30-06), anti-PAR (Trevigen, #4335-MC-100; Abcam, ab14459) at 1:1000 and anti-PARP2 (Santa Cruz, SC-393310) at 1:200 overnight at 4° C. The antibodies ATM, ATR, BRCA1, Chk1, Chk2, DNA-PKs and XRCC1 were all from the Bethyl Laboratories. Phospho-Chk1, phospho-Chk2 and phosphor-p53 antibodies were from a DNA Damage Antibody Sampler Kit (Cell Signaling #9947). Secondary antibodies were horseradish peroxidase-coupled sheep anti-mouse IgG (GE Healthcare, UK), donkey anti-rabbit IgG (GE Healthcare, UK). Amersham™ ECL and Amersham Select ECL western blotting detection systems (GE Healthcare, UK) were used to develop signals. Quantifications of images from western blot films were performed using ImageJ (National Institutes of Health, Bethesda, MD).
Equal aliquots of 293T cell lysates with over-expressing Flag-DBC1 were immunoprecipitated using Flag-M2 agarose beads as described above. After four brief washes with lysis buffer, the beads aliquots were incubated with the freshly dissolved NAD^+ or other chemicals for 1 hr at 4° C. with gentle rotation then centrifuged (5000 rpm, 5 min). After completely removing supernatant, the beads were boiled in SDS loading buffer, analyzed by SDS-PAGE, and probed with antibodies.

[2] = system: cellular NAD^+ levels; assay: NAD+ quantification in 293T cells; assay type: cell-based, human; conditions: treatment of 293T cells
Method: NAD^+ quantification was conducted with an NAD/NADH Quantification Kit (Biovision, Milpitas, CA) following the manufacturer's instructions and normalized to soluble protein content.

[3] = system: PARP1-DBC1 interaction; assay: PARP1-DBC1 interaction in treated 293T cells (co-immunoprecipitation); assay type: cell-based, human; conditions: for effect on the PARP1-DBC1 interaction in 293T cells: PJ34 or 3-AB (2 mM) for 24 hrs
Method: 293T, MCF-7, DBC1 wild type and knockout MEFs (a gift from Dr. Eduardo N. Chini from Mayo Clinic) were cultured in Dulbecco's modified Eagle's medium (DMEM, Mediatech, Inc., Herndon, VA) supplemented with 10% fetal bovine serum (Gemini Bio-products, Woodland, CA) with the presence of penicillin and streptomycin (Corning, Manassas, VA). Retroviruses expressing wild-type or mutant Flag-DBC1 proteins were produced by transfecting 293T cells with plasmids encoding VSV-G, Gag-Pol, and pMSCVpuro-Flag-DBC1 constructs using Lipofectamine® 2000 according to the manufacturer's instructions. Media was changed the day after transfection, and virus-containing media was harvested between 48 and 72 hours post-transfection and filtered through a […] (Corning, Manassas, VA). The filtered media was incubated with the target cells in the presence of 5 μg/mL polybrene (Sigma) and selection started using puromycin (2 μg/mL) 48 hrs post-infection. Lentivirus for knocking down DBC1 or SIRT1 was produced by transfecting 293T with psPAX2 (Addgene plasmid #12260), pMD2.G (Addgene plasmid #12259) and shRNA constructs using Lipofectamine® 2000. The virus harvest, infection and selection were same as described for retrovirus production. The transfections of siRNA were performed using Lipofectamine® RNAiMAX, according to the manufacturer's instructions.
as §1
(§3) Cell lysates or Co-IP samples were run on homemade 10% or 4-20% gradient pre-cast SDS-PAGE gels (Bio-Rad) under reducing conditions, and then transferred to a polyvinylidene difluoride (PVDF) membrane (Millipore). Membranes were blocked with 5% non-fat dry milk in TBS-Tween (10 mM Tris HCl, pH 7.5, 150 mM NaCl, and 0.1% Tween-20). […] Quantifications of images from western blot films were performed using ImageJ (National Institutes of Health, Bethesda, MD).

[4] = system: PAR; assay: PAR induced by paraquat in 293T cells (western blot); assay type: cell-based, human; conditions: 3-AB 2 mM, paraquat 0.5 mM
Method: as §2, with “The antibodies ATM, ATR, BRCA1, Chk1, Chk2, DNA-PKs and XRCC1 were all from the Bethyl Laboratories. Phospho-Chk1, phospho-Chk2 and phosphor-p53 antibodies were from a DNA Damage Antibody Sampler Kit (Cell Signaling #9947). Secondary antibodies were horseradish peroxidase-coupled sheep anti-mouse IgG (GE Healthcare, UK), donkey anti-rabbit IgG (GE Healthcare, UK). Amersham™ ECL and Amersham Select ECL western blotting detection systems (GE Healthcare, UK) were used to develop signals.” left out

[5] = system: p53 and RAD51 pulled down with Flag-DBC1; assay: Interaction of DNA repair proteins with Flag-DBC1 in 293T cells; assay type: cell-based, human; conditions: 0.5 mM, 24 hrs
Method: as §1, §3

[6] = biological target: T2, DBC1WT (Homo sapiens, UniProt Q8N163); assay: Biotin-NAD+ binding assay, DBC1 wild type; conditions: unlabeled competitor
T2 construct: expressed in transfected cells; host or cells: 293T cells
T2 sequence (Q8N163 whole entry): as the sequence (Q8N163 whole entry, one chain of several) above
Method: Lysates of 293T cells expressing Flag-DBC1 or V5/his-DBC1 were prepared as described above and bound to an anti-Flag high sensitivity M2 coated 96-well plate (Sigma) or His-Select® high sensitivity nickel coated 96-well plate (Sigma) by incubating for 3-4 hrs at 4° C., then washed three times with lysis buffer. Biotin-NAD^+ (Trevigen), or specified molecules were incubated in the plates overnight at 4° C. After washing twice with PBS (pH 7.4) and twice with PBS-T (0.1% Triton X-100), streptavidin-HRP (Trevigen, 1:500) in PBS-T was added to each well and incubated for 1 hr at room temperature. After washing twice with PBS (pH 7.4) and twice with PBS-T, 100 μl of PeroxyGlow™ A and B chemiluminescent substrates (Trevigen) mixture (1:1) was added into each well for 1 min followed by immediate quantification of chemiluminescence on a EnSpire 2300 Multi-label reader (Perkin Elmer). Binding curves were calculated using the “one site, specific binding” formula of GraphPad.

[7] = system: SIRT1-DBC1 interaction; assay: SIRT1-DBC1 interaction in treated 293T cells; assay type: cell-based, human; conditions: FK866 (5 nM, 24 hrs)
Method: 293T, MCF-7, DBC1 wild type and knockout MEFs (a gift from Dr. Eduardo N. Chini from Mayo Clinic) were cultured in Dulbecco's modified Eagle's medium (DMEM, Mediatech, Inc., Herndon, VA) supplemented with 10% fetal bovine serum (Gemini Bio-products, Woodland, CA) with the presence of penicillin and streptomycin (Corning, Manassas, VA). Retroviruses expressing wild-type or mutant Flag-DBC1 proteins were produced by transfecting 293T cells with plasmids encoding VSV-G, Gag-Pol, and pMSCVpuro-Flag-DBC1 constructs using Lipofectamine® 2000 according to the manufacturer's instructions. […]
Protein extracts from 293T or mouse liver tissues were lysed in ice-cold buffer (150 mM NaCl, 1 mM EDTA, 1 mM EGTA, 1% Triton X-100, 0.5% NP-40, 10 mM Tris HCl, pH 7.4) supplemented with protease inhibitors cocktail cOmplete tablets (Roche) and phosphatase inhibitor cocktail 2 and 3 (Sigma). Protein concentrations were determined by the Bradford protein assay (Bio-rad). […]
as §3, with “(Millipore).” for “(Millipore). Membranes were blocked with 5% non-fat dry milk in TBS-Tween (10 mM Tris HCl, pH 7.5, 150 mM NaCl, and 0.1% Tween-20).”

SMILES: NC(=O)c1cccc(N)c1 [3-AB, 3-aminobenzamide]
- PAR induced by paraquat [4]: inhibitory effect
- effect on the PARP1-DBC1 complex ([1]; 2 mM, 1 hr): no effect
- effect on the PARP1-DBC1 interaction in 293T cells [3]: no effect

SMILES: C[n+]1ccc(-c2cc[n+](C)cc2)cc1 [paraquat]
- interaction of p53 and RAD51 with Flag-DBC1 [5]: did not change

SMILES: Nc1ncnc2c1ncn2[C@@H]1O[C@H](COP(=O)(O)OP(=O)(O)OC[C@H]2OC(O)[C@H](O)[C@@H]2O)[C@@H](O)[C@H]1O (stereo partly drawn) [ADPr, ADP-ribose]
- effect on the PARP1-DBC1 complex ([1]; 200 μM, 1 hr): no effect

SMILES: CN(C)CC(=O)Nc1ccc2[nH]c(=O)c3ccccc3c2c1 [PJ-34]
- effect on the PARP1-DBC1 interaction in 293T cells [3]: no effect

SMILES: O=C(/C=C/c1cccnc1)NCCCCC1CCN(C(=O)c2ccccc2)CC1 [FK866]
- SIRT1-DBC1 interaction in cells [7]: slightly diminished
- PARP1-DBC1 interaction in HEK293T cells ([3]; FK866, 24 hrs): increased

More lines, main results first:

- effect on the PARP1-DBC1 complex ([1]; 200 μM, 1 hr): no effect
SMILES: NC(=O)c1ccc[n+]([C@@H]2O[C@H](CO)[C@@H](O)[C@H]2O)c1 [NR, Nicotinamide Riboside]
- cellular NAD^+ levels [2]: raises
- PARP1-DBC1 complex in 293T cells ([3]; treatment of 293T cells with NR): dissociates

- effect on the PARP1-DBC1 complex ([1]; 200 μM, 1 hr): less effective than NAD^+
SMILES: NC(=O)C1=CN([C@@H]2O[C@H](COP(=O)(O)OP(=O)(O)OC[C@H]3O[C@@H](n4cnc5c(N)ncnc54)[C@H](O)[C@@H]3O)[C@@H](O)[C@H]2O)C=CC1 [NADH]

- effect on the PARP1-DBC1 complex ([1]; non-hydrolysable NAD^+ analogue, concentration not given): abrogated
SMILES: NC(=O)c1ccc[n+]([C@@H]2C[C@H](COP(=O)(O)OP(=O)(O)OC[C@H]3O[C@@H](n4cnc5c(N)ncnc54)[C@H](O)[C@@H]3O)[C@@H](O)[C@H]2O)c1 [Carba-NAD, Carbanicotinamide adenine dinucleotide]

- effect on the PARP1-DBC1 complex ([1]; 200 μM, 1 hr): less effective than NAD^+
SMILES: Nc1ncnc2nc[nH]c12 [adenine]

- effect on the PARP1-DBC1 complex ([1]; 200 μM, 1 hr): no effect
SMILES: Nc1ncnc2c1ncn2[C@@H]1O[C@H](CO)[C@@H](O)[C@H]1O [adenosine]

- effect on the PARP1-DBC1 complex ([1]; 200 μM, 1 hr): no effect
SMILES: Nc1ncnc2c1ncn2[C@@H]1O[C@H](COP(=O)(O)OP(=O)(O)OP(=O)(O)O)[C@@H](O)[C@H]1O [ATP, adenosine triphosphate]

- effect on the PARP1-DBC1 complex ([1]; 500 μM, 1 hr): no effect
SMILES: NC(=O)c1cccnc1 [NAM, Nicotinamide]

- competition of labeled NAD^+ bound to DBC1 [6]: competed off
SMILES: NC(=O)c1ccc[n+]([C@@H]2O[C@H](COP(=O)([O-])OP(=O)(O)OC[C@H]3O[C@@H](n4cnc5c(N)ncnc54)[C@H](O)[C@@H]3O)[C@@H](O)[C@H]2O)c1 [unlabeled NAD^+]
